Bounds are passed on as bounds.

We go through two compounds from patent publication US10011614B2, “Bis-β-carboline compound and preparation method, pharmaceutical composition and use thereof” (XINJIANG HUASHIDAN PHARMACEUTICAL RESEARCH CO., LTD., priority 2012, dated 2018).

In data set [1] the test system is KB (human oral epidermoid carcinoma cells). The experiment in a line: Antitumor screening in vitro, MTT assay, KB. It is filed as cell-based. As to conditions: 48 hours. On the procedure: (§1) Cell lines: BGC (human gastric cancer cells), A375 (human malignant melanoma cells), 769-P (human renal carcinoma cells), KB (human oral epidermoid carcinoma cells), SK-OV-3 (human ovarian cancer cells), etc, were selected, and the test method was the MTT assay. Cisplatin was as a positive control.
(§2) Specific methods are as follows: cells growing well in the logarithmic phase were seeded in 96-well plates at a concentration of 1×10^4 cells/ml, and then were placed in 37° C., containing 5% CO2 incubator for 24 hours. After discarding the old solution, changed fresh medium, and added sterilization treatment compound, and then cultured for 48 hours. After discarding the culture medium, 20 ul RPMI1640 medium containing 5 mg/ml MTT were added to each well in 96-well plates and cells were cultured for 4 hours. After the supernatant was carefully removed, 100 μl DMSO was added to each well, and the plates were Oscillated about 10 min to dissolve the precipitate, followed by detecting OD value in wavelength 490 nm by the microplate reader. Cell survival rate for each sample concentrations was determined by the following formula: The mean survival rate %=the average OD value of sample group/the average OD value of control group×100%
(§3) Morphological studies by mapping with the logarithm of the drug concentration and the mean survival rate % of each sample to obtain IC50 values for each sample.
(In general: Tetrazolium assays rely on reduction of a dye to a coloured formazan, in cell work by metabolically active cells.)

The test system of data set [2] is A375 (human malignant melanoma cells). The experiment in a line: Antitumor screening in vitro, MTT assay, A375. It is filed as cell-based. The conditions noted are these: 48 hours. On the procedure: as §1, §2, §3
A further data set has as its system Kunming mice. The experiment in a line: Acute toxicity test in mice (LD50). As to conditions: Kunming mice, single intraperitoneal administration, observed two weeks, Bliss method. The method, then: Solvent: 0.9% saline and 0.5% CMC-Na solution. According to pre-test results, design 5 dose gradient for each sample, dose spacing was 0.8 times. […] Experimental volume is 0.5 ml/20 g mouse. A single intraperitoneal administration is used. Kunming mice were taken and grouped randomly by gender, and intraperitoneal administration according to dose designation was set to observe the immediate reaction after administration in mice. Dead animals were dissected to observe, surviving animals continued to observe two weeks, and the animal deaths in two weeks were recorded. After two weeks, surviving animals were dissected, observed substantial organ lesions, and the organs having substantive lesions were further for histological examination. According to the number of deaths in each group of animals, calculating the median lethal dose (LD50 value) by Bliss method, and further, calculating the maximum tolerated dose (MTD) for less toxic compounds.

Data set [3] has as its system 769-P (human renal carcinoma cells). The experiment in a line: Antitumor screening in vitro, MTT assay, 769-P. It counts as cell-based. As to conditions: 48 hours, 769-P cells. The method, then: as §1, §2, §3
For data set [4], the system named is BGC (human gastric cancer cells). The experiment in a line: Antitumor screening in vitro, MTT assay, BGC. The conditions noted are these: 48 hours. It counts as cell-based. On the procedure:
as §1, §2, §3

For data set [5], the system named is SK-OV-3 (human ovarian cancer cells). The experiment in a line: Antitumor screening in vitro, MTT assay, SK-OV-3. It counts as cell-based. The conditions noted are these: 48 hours, SK-OV-3 cells. On the procedure:
as §1, §2, §3

In general, IC50 refers to the midpoint of a concentration-inhibition curve. Lower therefore signals higher potency. For the compound `COc1cc(-c2nccc3c4ccccc4n(CCCCCCn4c5ccccc5c5ccnc(-c6cc(OC)c(OC)c(OC)c6)c54)c23)cc(OC)c1OC` [Compound 19, 1,6-bis[1-(3,4,5-trimethoxy)phenyl-β-carboline-9-yl) hexane], the IC50 in data set [1] was more than 300 µM; in data set [2], 5.9 µM; in data set [3], 16.8 µM; in data set [4], more than 300 µM; in data set [5] it was more than 300 µM. Also, the acute toxicity LD50 with Kunming mice was 200 mg/kg.
As to `CCOC(=O)c1cc2c3ccccc3n(CCCCCCn3c4ccccc4c4cc(C(=O)OCC)nc(-c5cc(OC)c(OC)c(OC)c5)c43)c2c(-c2cc(OC)c(OC)c(OC)c2)n1` [Compound 27, 1,6-bis[1-(3,4.5-trimethoxy)phenyl-β-carboline-β-ethyoxylcarbonyl-9-yl]hexane], the acute toxicity LD50 in the data set with Kunming mice worked out at 300 mg/kg.
